# Laboratory results: patent EP0116431B1, “Aromatase inhibiting pyrimidine derivatives” (ELI LILLY AND COMPANY, priority 1983, dated 1984)
# Like-named read-outs stand apart in the source and are kept apart here.
# Assays:
# [1] = system: DMBA-induced Mammary Tumor; experiment: DMBA-induced mammary tumor inhibition; type: in vivo, Sprague-Dawley rats; details: for Mean Tumor Area (mm^2) Start: start of test
# Method: Mammary tumors were produced in female Sprague-Dawley rats which were 50-60 days old by the gavage administration of 20 mg of 7,12-dimethylbenz[a]anthracene (DMBA). About six weeks after DMBA administration, the mammary glands were palpated at weekly intervals for the appearance of tumors. Whenever one or more tumors appeared and were measurable in an animal, that animal was selected for experimentation. […] Each control and test group contained 8 animals. The test compound was administered either mixed into the food at a concentration of 300 ppm (corresponding to an appropriate daily dose of 30 mg/kg) or the compounds were dissolved or suspended in corn oil and administered once daily by gavage. Every experiment included a group of control rats having tumors and were either given food without the compound admixed or corn oil vehicle by gavage, depending on how the test compound was administered. […] The area of each tumor was calculated by multiplying the shortest and longest diameters of the tumor. The treatment and measurement of animals continued for 4-8 weeks at which time the final areas of the tumors were determined. For each compound (and control) at each dose level, the change in the mean tumor area was determined. The mean change was analyzed for its significance using Dunnett's t-test.
# synthesis of estrogens = details: seven days, testosterone propionate-treated immature female rats
# [2] = 300 ppm in the diet, 5 weeks test
# [3] = 300 ppm in feed (approximately 30 mg/kg/day)
compound,measurement,setting,value
"OC(c1ccc(Cl)cc1)(c1ccc(Cl)cc1)c1cncnc1 [compound 29, α,α-bis(4-chlorophenyl)-5-pyrimidinemethanol]",Mean Tumor Area (mm^2) Finish,"[1]; 1 mg/kg daily by gavage, 5 weeks",210^+ mm^2
same,Mean Tumor Area (mm^2) Start,"[1]; 1 mg/kg daily by gavage, 5 weeks test",66 mm^2
same,Mean Tumor Area (mm^2) Finish,"[1]; 5 mg/kg daily by gavage, 4 weeks",123.5 mm^2
same,Mean Tumor Area (mm^2) Start,"[1]; 5 mg/kg daily by gavage, 4 weeks test",56.3 mm^2
same,Mean Tumor Area (mm^2) Finish,"[1]; 7.5 mg/kg daily by gavage, 5 weeks",159^+ mm^2
same,Mean Tumor Area (mm^2) Start,"[1]; 7.5 mg/kg daily by gavage, 5 weeks test",63 mm^2
same,Mean Tumor Area (mm^2) Finish,"[1]; 15 mg/kg daily by gavage, 5 weeks",9^+ mm^2
same,Mean Tumor Area (mm^2) Start,"[1]; 15 mg/kg daily by gavage, 5 weeks test",50 mm^2
same,Mean Tumor Area (mm^2) Finish,"[1]; 30 mg/kg daily by gavage, 4 weeks",34.3 mm^2
same,Mean Tumor Area (mm^2) Start,"[1]; 30 mg/kg daily by gavage, 4 weeks test",71.5 mm^2
same,Mean Tumor Area (mm^2) Finish,"[1]; 30 mg/kg daily by gavage, 5 weeks",146^+ mm^2
same,Mean Tumor Area (mm^2) Start,"[1]; 30 mg/kg daily by gavage, 5 weeks test",69 mm^2
same,Mean Tumor Area (mm^2) Finish,"[1]; 300 ppm in the diet, 5 weeks",10.0^+ mm^2
same,Mean Tumor Area (mm^2) Start,[1]; [2],60.7 mm^2
same,Mean Tumor Area (mm^2) Finish,"[1]; 300 ppm in the diet, 8 weeks",355^+ mm^2
same,Mean Tumor Area (mm^2) Start,"[1]; 300 ppm in the diet, 8 weeks test",160.4 mm^2
same,Mean Uterine Weight (mg),synthesis of estrogens; [3],75.00^+ mg
"Clc1ccc(C(c2ccc(Cl)cc2)c2cncnc2)cc1 [compound 27, 5-bis(4-chlorophenyl)methylpyrimidine]",Mean Tumor Area (mm^2) Finish,"[1]; 300 ppm in the diet, 5 weeks",154 mm^2
same,Mean Tumor Area (mm^2) Start,[1]; [2],78.6 mm^2
same,Mean Uterine Weight (mg),synthesis of estrogens; 30 ppm in feed (approximately 3 mg/kg/day),92.25^+ mg
same,Mean Uterine Weight (mg),synthesis of estrogens; [3],80.20^+ mg
